According to patent publication EP0059645A1, “Method and kit for identification of beta-lactamases” (NATIONAL RESEARCH DEVELOPMENT CORPORATION, priority 1981, dated 1982):
Marks after values point to notes of the source that are not given here.

Columns and labels:
Assay in all cases: Competitive assay with nitrocefin (RSAI)
[1] = biological target: T1, Chromosomal, induced beta-lactamase enzyme (Pseudomonas aeruginosa, UniProt P24735); format: biochemical, Ps.aerug. 1937E + ampicillin
T1 construct: Normally, therefore, the beta-lactamase has to be extracted from the cells for the purpose of the present invention; endogenous in cells; host or cells: Pseudomonas aeruginosa 1937E grown with ampicillin

[2] = biological target: T2, Chromosomal, constitutive beta-lactamase enzyme (Enterobacter cloacae, UniProt P05364); format: biochemical, E. cloacae
T2 construct: Normally, therefore, the beta-lactamase has to be extracted from the cells for the purpose of the present invention; endogenous in cells

SHV-1 = SHV-1 (Escherichia coli, UniProt P0AD63); format: biochemical, E. coli 2008E; set-up: the beta-lactamase has to be extracted from the cells for the purpose of the present invention; made in house; host or cells: E. coli 2008E (crude cell extract)
[3] = biological target: Chromosomal, hyper-induced beta-lactamase enzyme (Escherichia coli, UniProt P00811); format: biochemical, E. coli SNU35; set-up: Normally, therefore, the beta-lactamase has to be extracted from the cells for the purpose of the present invention; endogenous in cells; host or cells: E. coli SNU 35 (artificially produced strain)
K1073 = format: biochemical, Klebsiella 1073
From the text: (§1) It is convenient to express the results in terms of a Relative Substrate Affinity Index (RSAI) value.
(§2) RSAI = Concentration of competing substrate which gives 50% inhibition of ring-opening hydrolysis of the chromogenic substrate
(§3) Concentration of chromogenic substrate in the assay A high RSAI value therefore indicates a low affinity of the beta-lactamase for that competing substrate, and therefore predicts resistance of a beta-lactam competing substrate to hydrolysis by the beta-lactamase. Low RSAI values, in contrast, predict sensitivity to hydrolysis by a beta-lactamase.
(§4) Beta-lactam antibiotics which bind to the TEM-2 enzyme compete with nitrocefin in the assay. […] . This concentration of ampicillin is a direct estimate of the relative affinity of the TEM-2 enzyme for ampicillin. […] . The RSAI value was therefore 1.3.

PSE-1 = PSE-1 (Pseudomonas aeruginosa, UniProt Q03170); format: biochemical, Ps.aerug. 1937E; set-up: Normally, therefore, the beta-lactamase has to be extracted from the cells for the purpose of the present invention; endogenous in cells
TEM-2 = TEM-2 (Escherichia coli, UniProt P62593, Q37K); format: biochemical, E. coli 1725E
From the text: as §1, §2, §3, §4

HMS-1 = format: biochemical, E. coli 1946
PSE-3 = format: biochemical, Ps.aerug. 1920E
PSE-4 = PSE-4 (Pseudomonas aeruginosa, UniProt P16897); format: biochemical, Ps.aerug. 1559E; set-up: Normally, therefore, the beta-lactamase has to be extracted from the cells for the purpose of the present invention; endogenous in cells
K17 = format: biochemical, Klebsiella 17
From the text: as §1, §2, §3, §4

PSE-2 = PSE-2 (Pseudomonas aeruginosa, UniProt P14489); format: biochemical, Ps.aerug. 1973E; set-up: Normally, therefore, the beta-lactamase has to be extracted from the cells for the purpose of the present invention; endogenous in cells
OXA-3 = OXA-3 (Pseudomonas aeruginosa, UniProt Q51429); format: biochemical, E. coli R57B; set-up: Normally, therefore, the beta-lactamase has to be extracted from the cells for the purpose of the present invention; endogenous in cells
OXA-1 = OXA-1 (Escherichia coli, UniProt P13661); format: biochemical, E. coli 1527E; set-up: the beta-lactamase has to be extracted from the cells for the purpose of the present invention; made in house; host or cells: E. coli 1527E according to the earlier reading (crude cell extract)
OXA-2 = OXA-2 (Escherichia coli, UniProt P0A1V9); format: biochemical, E. coli R46; set-up: the beta-lactamase has to be extracted from the cells for the purpose of the present invention; made in house; host or cells: E. coli carrying R46 according to the earlier reading (crude cell extract)
TEM-1 = TEM-1 (Escherichia coli, UniProt P62593); format: biochemical, E. coli 2136E; set-up: the beta-lactamase has to be extracted from the cells for the purpose of the present invention; made in house; host or cells: E. coli 2136E (plasmid-bearing strain; crude cell extract)
K10317 = format: biochemical, K.aerog. 10317
From the text: as §1, §2, §3, §4

SMILES	RSAI [1]	RSAI [2]	RSAI (SHV-1)	RSAI [3]	RSAI (K1073)	RSAI (PSE-1)	RSAI (TEM-2)	RSAI (HMS-1)	RSAI (PSE-3)	RSAI (PSE-4)	RSAI (K17)	RSAI (PSE-2)	RSAI (OXA-3)	RSAI (OXA-1)	RSAI (OXA-2)	RSAI (TEM-1)	RSAI (K10317)	nature of the binding to the enzyme (PSE-1)	nature of the binding to the enzyme (PSE-4)
CC1=C(C(=O)O)N2C(=O)[C@@H](NC(=O)[C@H](N)C3=CCC=CC3)[C@H]2SC1 [Cephra-dine, cephradine]	1	1.8	15	0.12	25	46	50	25	3.6	80	10.4	4.2	100	420	86	35	18	–	–
CC1(C)S[C@@H]2[C@H](NC(=O)[C@H](NC(=O)N3CCN(S(C)(=O)=O)C3=O)c3ccccc3)C(=O)N2[C@H]1C(=O)O [Mezlo-cillin, Mezlocillin]	0.26	0.4	3	0.3	5.5	1.2	6.3	0.9	0.8	0.9	1.3	4.75	19.2	1.9	19.4	3.6	16.4	–	–
CC1(C)S[C@@H]2[C@H](NC(=O)[C@H](C(=O)O)c3ccsc3)C(=O)N2[C@H]1C(=O)O [Ticar-cillin, ticarcillin]	0.0065	0.0008*	0.23	0.001	0.485	0.63	0.49	0.175	2	0.65	0.25	2.4	12	0.65	26	0.035	0.48	–	–
CO/N=C(\C(=O)N[C@@H]1C(=O)N2C(C(=O)O)=CCS[C@H]12)c1csc(N)n1 [Cefti-zoxime, ceftizoxime]	500	0.1	1400	1.7	720	360	1000	66	120	380	220	128	200	50	110	1000	630	–	–
C[C@@H](O)[C@H]1C(=O)N2C(C(=O)O)=C(SCCN=CN)C[C@H]12 [MK 0787 (N-Formimidoyl-thienamycin), N-Formimidoyl-thienamycin]	0.015	0.03	1.2	2	1.9	19.4	0.1	1.2	0.5	15	2.1	0.08	0.0016*	0.6*	0.005*	0.1	0.24	–	–
Cc1nnc(SCC2=C(C(=O)O)N3C(=O)[C@@H](NC(=O)Cn4cnnn4)[C@H]3SC2)s1 [Cephalo-zolin, Cephalozolin]	15	17	15	46	16	2	48	0.8	3.2	2.6	1	1.4	3.4	10	3.4	30	30	–	–
CC(C)(O/N=C(\C(=O)N[C@@H]1C(=O)N2C(C(=O)[O-])=C(C[n+]3ccccc3)CS[C@H]12)c1csc(N)n1)C(=O)O [Ceftazidime (GR 20,263), Ceftazidime]	0.46*	0.1*	1140	0.2*	1420	600	1500	10	144	420	880	>400	>400	>2000	900	>400	–	–	–
CC1(C)S[C@@H]2[C@H](NC(=O)[C@H](N)c3ccc(O)cc3)C(=O)N2[C@H]1C(=O)O [Amoxy-cillin, amoxycillin]	0.035	0.05	2.8	0.02	1.7	0.9	2.2	0.8	1.5	1	1.3	2.2	8.6	1.2	8	1.3	7	–	–
O=C(Cc1cccs1)N[C@@H]1C(=O)N2C(C(=O)[O-])=C(C[n+]3ccccc3)CS[C@H]12 [Cephalo-ridine, cephaloridine]	–	16	30	2*	19.2	6	20	6	2.2	3.5	5.4	22	4.4	60	4	40	30	–	–
O=C(O)[C@H]1/C(=C/CO)O[C@@H]2CC(=O)N21 [Clavulanic acid]	>40	50	0.006*	4	0.004*	0.0001	0.002*	0.006*	0.014	0.004*	0.004*	0.4	1.6*	0.02*	0.9*	0.003*	0.004*	reversibly	irreversibly
